Test: concentration in blood of tulobuterol upon administering to a rat, compared with oral administration
Assay type: in vivo
Details: oral 10 mg/kg

AUC (blood): 91000 ng·h/mL
bioavailability (blood): 5.37%
concentration in blood of tulobuterol (0.25 hr): 227.0
concentration in blood of tulobuterol (0.5 hr): 37.7
concentration in blood of tulobuterol (1 hr): 17.1
concentration in blood of tulobuterol (2 hr): 4.3
concentration in blood of tulobuterol (4 hr): 0.8
concentration in blood of tulobuterol (6 hr): 0 ng/mL
concentration in blood of tulobuterol (8 hr): 0 ng/mL
concentration in blood of tulobuterol (12 hr): 0 ng/mL
concentration in blood of tulobuterol (24 hr): 0 ng/mL
SMILES: CC(C)(C)NCC(O)c1ccccc1Cl (centres unmarked) [tulobuterol]
